Test: Western blot analysis for "B" compounds
Format: cell-based
Conditions: read-out: Traditional Western Degradation Potency (DC50)
Summary of the method: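 Target protein levels given as relative mean band intensity over GAPDH from scanned immunoblots. Lysates of treated cells in RIPA buffer, equalized by BCA, separated on 10% gels and transferred to PVDF.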

SMILES | DC50
O=C1CCC(N2C(=O)c3cc4c(cc3C2=O)CN(CC(=O)NC2CCN(c3ccc([C@@H]5c6ccc(O)cc6CC[C@@H]5c5ccccc5)cc3)CC2)C4)C(=O)N1 (stereo partly drawn) [Compound B93, 2-(6-(2,6-dioxopiperidin-3-yl)-5,7-dioxo-3,5,6,7-tetrahydropyrrolo[3,4-f]isoindol-2(1H)-yl)-N-(1-(4-((1R,2S)-6-hydroxy-2-phenyl-1,2,3,4-tetrahydronaphthalen-1-yl)phenyl)piperidin-4-yl)acetamide] | > 100 nM
O=C1CCC(N2C(=O)c3cc4c(cc3C2=O)CN(CC(=O)N2CCC3(CC2)CCN(c2ccc([C@@H]5c6ccc(O)cc6CC[C@@H]5c5ccccc5)cc2)C3)C4)C(=O)N1 (mixture of isomers) [Compound B20, 2-(2,6-dioxopiperidin-3-yl)-6-(2-(2-(4-((1R,2S)-6-hydroxy-2-phenyl-1,2,3,4-tetrahydronaphthalen-1-yl)phenyl)-2,8-diazaspiro[4.5]decan-8-yl)-2-oxoethyl)-6,7-dihydropyrrolo[3,4-f]isoindole-1,3(2H,5H)-dione] | 10 to 100 nM
C[C@@H]1CC2(CCN(c3ccc([C@@H]4c5ccc(O)cc5CC[C@@H]4c4ccc(F)cc4)cc3)CC2)CN1CC(=O)N1Cc2cc3c(cc2C1)C(=O)N(C1CCC(=O)NC1=O)C3=O (stereo partly drawn) [Compound B27, 2-(2,6-dioxopiperidin-3-yl)-6-(2-((R)-8-(4-((1R,2S)-2-(4-fluorophenyl)-6-hydroxy-1,2,3,4-tetrahydronaphthalen-1-yl)phenyl)-3-methyl-2,8-diazaspiro[4.5]decan-2-yl)acetyl)-6,7-dihydropyrrolo[3,4-f]isoindole-1,3(2H,5H)-dione] | > 100 nM
O=C1CCC(N2C(=O)c3cc4c(cc3C2=O)CN(C[C@H]2CC[C@H](C(=O)N3CC(Oc5ccc([C@@H]6c7ccc(O)cc7CC[C@@H]6c6ccccc6)cc5)C3)CC2)C4)C(=O)N1 (stereo partly drawn) [Compound B293, 2-(2,6-dioxopiperidin-3-yl)-6-(((1R,4r)-4-(3-(4-((1R,2S)-6-hydroxy-2-phenyl-1,2,3,4-tetrahydronaphthalen-1-yl)phenoxy)azetidine-1-carbonyl)cyclohexyl)methyl)-6,7-dihydropyrrolo[3,4-f]isoindole-1,3(2H,5H)-dione] | 10 to 100 nM
O=C1CCC(N2C(=O)c3cc4c(cc3C2=O)CN(C(=O)CN2CCC3(CC2)CCN(c2ccc([C@@H]5c6ccc(O)cc6CC[C@@H]5c5ccccc5)cc2)C3)C4)C(=O)N1 (mixture of isomers) [Compound B22, 2-(2,6-dioxopiperidin-3-yl)-6-(2-(2-(4-((1R,2S)-6-hydroxy-2-phenyl-1,2,3,4-tetrahydronaphthalen-1-yl)phenyl)-2,8-diazaspiro[4.5]decan-8-yl)acetyl)-6,7-dihydropyrrolo[3,4-f]isoindole-1,3(2H,5H)-dione] | > 100 nM
O=C1CCC(N2C(=O)c3cc4c(cc3C2=O)CN(C(=O)[C@H]2CC[C@H](CN3CC(Nc5ccc([C@@H]6c7ccc(O)cc7CC[C@@H]6c6ccccc6)cc5)C3)CC2)C4)C(=O)N1 (stereo partly drawn) [Compound B112, 2-(2,6-dioxopiperidin-3-yl)-6-((1R,4r)-4-((3-((4-((1R,2S)-6-hydroxy-2-phenyl-1,2,3,4-tetrahydronaphthalen-1-yl)phenyl)amino)azetidin-1-yl)methyl)cyclohexane-1-carbonyl)-6,7-dihydropyrrolo[3,4-f]isoindole-1,3(2H,5H)-dione] | < 10 nM
O=C1CCC(N2C(=O)c3cc4c(cc3C2=O)CN(CC(=O)N2CCC3(CC2)CCN(c2ccc([C@H]5c6ccc(O)cc6CC[C@H]5c5ccccc5)cc2)CC3)C4)C(=O)N1 (stereo partly drawn) [Compound B180, 2-(2,6-dioxopiperidin-3-yl)-6-(2-(9-(4-((1S,2R)-6-hydroxy-2-phenyl-1,2,3,4-tetrahydronaphthalen-1-yl)phenyl)-3,9-diazaspiro[5.5]undecan-3-yl)-2-oxoethyl)-6,7-dihydropyrrolo[3,4-f]isoindole-1,3(2H,5H)-dione] | > 100 nM
O=C1CCC(N2C(=O)c3cc4c(cc3C2=O)CN(CC(=O)N2CCC[C@H](Oc3ccc([C@@H]5c6ccc(O)cc6CC[C@@H]5c5ccc(F)cc5)cc3)C2)C4)C(=O)N1 (stereo partly drawn) [Compound B36, 2-(2,6-dioxopiperidin-3-yl)-6-(2-((S)-3-(4-((1R,2S)-2-(4-fluorophenyl)-6-hydroxy-1,2,3,4-tetrahydronaphthalen-1-yl)phenoxy)piperidin-1-yl)-2-oxoethyl)-6,7-dihydropyrrolo[3,4-f]isoindole-1,3(2H,5H)-dione] | > 100 nM
O=C1CCC(N2C(=O)c3cc4c(cc3C2=O)CN(C(=O)CN2CC3(CCN(c5ccc([C@@H]6c7ccc(O)cc7CC[C@@H]6c6ccccc6)cc5)CC3)C2)C4)C(=O)N1 (mixture of isomers) [Compound B17, 2-(2,6-dioxopiperidin-3-yl)-6-(2-(7-(4-((1R,2S)-6-hydroxy-2-phenyl-1,2,3,4-tetrahydronaphthalen-1-yl)phenyl)-2,7-diazaspiro[3.5]nonan-2-yl)acetyl)-6,7-dihydropyrrolo[3,4-f]isoindole-1,3(2H,5H)-dione] | 10 to 100 nM

Now from value to compound:

DC50 | SMILES
> 100 nM | O=C1CCC(N2C(=O)c3cc4c(cc3C2=O)CN(C2CCC(CNC3CN(c5ccc([C@@H]6c7ccc(O)cc7CC[C@@H]6c6ccccc6)cc5)C3)CC2)C4)C(=O)N1 (stereo partly drawn) [Compound B100, 2-(2,6-dioxopiperidin-3-yl)-6-(4-(((1-(4-((1R,2S)-6-hydroxy-2-phenyl-1,2,3,4-tetrahydronaphthalen-1-yl)phenyl)azetidin-3-yl)amino)methyl)cyclohexyl)-6,7-dihydropyrrolo[3,4-f]isoindole-1,3(2H,5H)-dione]
> 100 nM | O=C1CCC(N2C(=O)c3cc4c(cc3C2=O)CN(C(=O)C2CCN(CC3CN(c5ccc([C@@H]6c7ccc(O)cc7CC[C@@H]6c6ccccc6)cc5)C3)CC2)C4)C(=O)N1 (stereo partly drawn) [Compound B79, 2-(2,6-dioxopiperidin-3-yl)-6-(1-((1-(4-((1R,2S)-6-hydroxy-2-phenyl-1,2,3,4-tetrahydronaphthalen-1-yl)phenyl)azetidin-3-yl)methyl)piperidine-4-carbonyl)-6,7-dihydropyrrolo[3,4-f]isoindole-1,3(2H,5H)-dione]
> 100 nM | O=C1CCC(N2C(=O)c3cc4c(cc3C2=O)CN(CC2CCN(CC3CN(c5ccc([C@@H]6c7ccc(O)cc7CC[C@@H]6c6ccc(F)cc6)cc5)C3)CC2)C4)C(=O)N1 (stereo partly drawn) [Compound B70, 2-(2,6-dioxopiperidin-3-yl)-6-((1-((1-(4-((1R,2S)-2-(4-fluorophenyl)-6-hydroxy-1,2,3,4-tetrahydronaphthalen-1-yl)phenyl)azetidin-3-yl)methyl)piperidin-4-yl)methyl)-6,7-dihydropyrrolo[3,4-f]isoindole-1,3(2H,5H)-dione]
> 100 nM | O=C1CCC(N2Cc3cc4c(cc3C2=O)CN(C2CCN(CC3CN(c5ccc([C@@H]6c7ccc(O)cc7CC[C@@H]6c6ccccc6)cc5)C3)CC2)C4)C(=O)N1 (stereo partly drawn) [Compound B78, 3-(6-(1-((1-(4-((1R,2S)-6-hydroxy-2-phenyl-1,2,3,4-tetrahydronaphthalen-1-yl)phenyl)azetidin-3-yl)methyl)piperidin-4-yl)-1-oxo-3,5,6,7-tetrahydropyrrolo[3,4-f]isoindol-2(1H)-yl)piperidine-2,6-dione]
< 10 nM | O=C1CCC(N2Cc3cc4c(cc3C2=O)CN(CC(=O)N2CCC3(CC2)CN(c2ccc([C@@H]5c6ccc(O)cc6CC[C@@H]5c5ccccc5)cc2)C3)C4)C(=O)N1 (mixture of isomers) [Compound B183, 3-(6-(2-(2-(4-((1R,2S)-6-hydroxy-2-phenyl-1,2,3,4-tetrahydronaphthalen-1-yl)phenyl)-2,7-diazaspiro[3.5]nonan-7-yl)-2-oxoethyl)-1-oxo-3,5,6,7-tetrahydropyrrolo[3,4-f]isoindol-2(1H)-yl)piperidine-2,6-dione]
> 100 nM | O=C1CCC(N2C(=O)c3cc4c(cc3C2=O)CN(C2CCN(CC3CN(c5ccc([C@@H]6c7ccc(O)cc7CC[C@@H]6c6ccc(F)cc6)cc5)C3)CC2)C4)C(=O)N1 (stereo partly drawn) [Compound B69, 2-(2,6-dioxopiperidin-3-yl)-6-(1-((1-(4-((1R,2S)-2-(4-fluorophenyl)-6-hydroxy-1,2,3,4-tetrahydronaphthalen-1-yl)phenyl)azetidin-3-yl)methyl)piperidin-4-yl)-6,7-dihydropyrrolo[3,4-f]isoindole-1,3(2H,5H)-dione]
> 100 nM | O=C1CCC(N2Cc3cc4c(cc3C2=O)NC(=O)[C@@H]2CN(CC3CCN(c5ccc([C@@H]6c7ccc(O)cc7CC[C@@H]6c6ccccc6)cc5)CC3)CCN42)C(=O)N1 (stereo partly drawn) [Compound B134, (4aS)-9-(2,6-dioxopiperidin-3-yl)-3-((1-(4-((1R,2S)-6-hydroxy-2-phenyl-1,2,3,4-tetrahydronaphthalen-1-yl)phenyl)piperidin-4-yl)methyl)-2,3,4,4a,9,10-hexahydropyrazino[1,2-a]pyrrolo[3,4-g]quinoxaline-5,8(1H,6H)-dione]
< 10 nM | O=C1CCC(N2Cc3cc4c(cc3C2=O)CN(CC(=O)N2CCC3(C2)CN(c2ccc([C@@H]5c6ccc(O)cc6CC[C@@H]5c5ccccc5)cc2)C3)C4)C(=O)N1 (mixture of isomers) [Compound B184, 3-(6-(2-(2-(4-((1R,2S)-6-hydroxy-2-phenyl-1,2,3,4-tetrahydronaphthalen-1-yl)phenyl)-2,6-diazaspiro[3.4]octan-6-yl)-2-oxoethyl)-1-oxo-3,5,6,7-tetrahydropyrrolo[3,4-f]isoindol-2(1H)-yl)piperidine-2,6-dione]
> 100 nM | O=C1CCC(N2Cc3cc4c(cc3C2=O)CN(C2CN(CC3CCN(c5ccc([C@@H]6c7ccc(O)cc7CC[C@@H]6c6ccccc6)cc5)CC3)C2)C4=O)C(=O)N1 (stereo partly drawn) [Compound B302, 2-(2,6-dioxopiperidin-3-yl)-6-(1-((1-(4-((1R,2S)-6-hydroxy-2-phenyl-1,2,3,4-tetrahydronaphthalen-1-yl)phenyl)piperidin-4-yl)methyl)azetidin-3-yl)-2,3,6,7-tetrahydropyrrolo[3,4-f]isoindole-1,5-dione]
